Test results from patent US20240115745A1, “COMPOUNDS COMPRISING A FIBROBLAST ACTIVATION PROTEIN LIGAND AND USE THEREOF” (3B PHARMACEUTICALS GMBH, priority 2021, published 2024).
Like-named read-outs stand apart in the source and are kept apart here. *1 amine or outer side, *2 acyl side, *3 side chain or, on linkers, in order; H or OH if unused. Where a SMILES comes first, the peptide text is derived from it. Bridges are numbered along the chain shown (N, C = ends). [ ]: non-standard residue; d: D form. The star is where a group is joined. X4 = O=C(O)CN1CCN(CC(=O)O)CCN(CC(=O)NCCCOCCOCCOCCCN*)CCN(CC(=O)O)CC1; X1 = NC(=O)CC[C@H](N[*:1])C(=O)C[C@@H](Cc1ccccc1)C(=O)[*:2]; X11 = O=C(O)CN1CCN(CC(=O)O)CCN([C@H](CCC(=O)*)C(=O)O)CC1; DOTA = O=C(O)CN1CCN(CC(=O)O)CCN(CC(=O)*)CCN(CC(=O)O)CC1; Maleimide(3,4-diyl) = O=C1NC(=O)C([*:2])=C1[*:1]; X9 = O=C(C1CCC[C@H]1C(=O)[*:2])[C@@H]1CCCN1[*:1]; X8 = NCCNCC(CNCCN)C(=O)NCCCOCCOCCOCCCN*; Suc = O=C(CCC(=O)[*:2])[*:1]; β3hK = NCCCC[C@H](N)CC(=O)O; 4Amb = NCc1ccc(C(=O)O)cc1; hCys = N[C@@H](CCS)C(=O)O; Nle = CCCC[C@H](N)C(=O)O; X3 = NCCNCC(CNCCN)C(=O)*; Hexanoyl = CCCCCC(=O)*; AEEA = NCCOCCOCC(=O)O; CO = O=C([*:1])[*:2]; βAla = NCCC(=O)O; NHBu = CCCCN*

Key:
[1] = target: T1, FAP-expressing human WI-38 fibroblasts (Homo sapiens, UniProt Q12884); test: Competitive FACS binding assay;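 further: flow cytometry read-out of median Cy5 fluorescence on the cells, plotted versus test compound concentration, with IC50 derived by four-parameter logistic curve fitting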
T1 construct: FAP-expressing human WI-38 fibroblasts (ECACC) were cultured in EMEM; host or cells: WI-38 human fibroblasts

[2] = target: T2, Recombinant human FAP (Homo sapiens, UniProt Q12884); test: FRET-based FAP protease activity assay; type: biochemical
T2 construct: purchased R&D systems 3715-SE

[3] = competition with 3 nM Cy5-labeled compound, WI-38 fibroblasts, 4° C., 1 hour, read-out: pIC50 Category (FACS) (converted)
[4] = recombinant human FAP, FRET-peptide substrate, 37° C., read-out: pIC50 Category (Activity) (converted)
[5] = read-out: pIC50 (highest activity categories, FACS binding) (converted)
[6] = read-out: pIC50 (highest activity categories, FAP activity) (converted)

T1 sequence (Q12884 whole entry): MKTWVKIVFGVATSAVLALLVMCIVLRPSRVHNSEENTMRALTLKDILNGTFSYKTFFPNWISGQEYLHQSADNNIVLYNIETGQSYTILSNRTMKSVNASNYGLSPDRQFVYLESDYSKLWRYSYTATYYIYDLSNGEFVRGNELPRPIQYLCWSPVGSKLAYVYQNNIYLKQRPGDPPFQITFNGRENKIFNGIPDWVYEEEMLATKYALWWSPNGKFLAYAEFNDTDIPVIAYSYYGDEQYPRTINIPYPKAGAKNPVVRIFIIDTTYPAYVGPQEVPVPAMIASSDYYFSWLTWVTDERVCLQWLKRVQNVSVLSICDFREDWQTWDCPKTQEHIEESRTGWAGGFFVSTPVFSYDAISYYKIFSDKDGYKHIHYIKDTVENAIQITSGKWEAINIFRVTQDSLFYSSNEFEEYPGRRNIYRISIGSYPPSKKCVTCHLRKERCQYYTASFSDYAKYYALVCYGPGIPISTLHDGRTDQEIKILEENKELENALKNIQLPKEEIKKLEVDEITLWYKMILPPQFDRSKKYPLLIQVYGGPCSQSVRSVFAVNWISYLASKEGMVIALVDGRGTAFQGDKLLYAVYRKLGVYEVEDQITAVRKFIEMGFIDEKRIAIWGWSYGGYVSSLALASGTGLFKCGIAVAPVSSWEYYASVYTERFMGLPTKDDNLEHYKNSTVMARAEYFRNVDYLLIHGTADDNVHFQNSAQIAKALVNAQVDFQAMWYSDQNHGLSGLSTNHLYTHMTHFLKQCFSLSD
T2 sequence (Q12884 26-760 limits assumed): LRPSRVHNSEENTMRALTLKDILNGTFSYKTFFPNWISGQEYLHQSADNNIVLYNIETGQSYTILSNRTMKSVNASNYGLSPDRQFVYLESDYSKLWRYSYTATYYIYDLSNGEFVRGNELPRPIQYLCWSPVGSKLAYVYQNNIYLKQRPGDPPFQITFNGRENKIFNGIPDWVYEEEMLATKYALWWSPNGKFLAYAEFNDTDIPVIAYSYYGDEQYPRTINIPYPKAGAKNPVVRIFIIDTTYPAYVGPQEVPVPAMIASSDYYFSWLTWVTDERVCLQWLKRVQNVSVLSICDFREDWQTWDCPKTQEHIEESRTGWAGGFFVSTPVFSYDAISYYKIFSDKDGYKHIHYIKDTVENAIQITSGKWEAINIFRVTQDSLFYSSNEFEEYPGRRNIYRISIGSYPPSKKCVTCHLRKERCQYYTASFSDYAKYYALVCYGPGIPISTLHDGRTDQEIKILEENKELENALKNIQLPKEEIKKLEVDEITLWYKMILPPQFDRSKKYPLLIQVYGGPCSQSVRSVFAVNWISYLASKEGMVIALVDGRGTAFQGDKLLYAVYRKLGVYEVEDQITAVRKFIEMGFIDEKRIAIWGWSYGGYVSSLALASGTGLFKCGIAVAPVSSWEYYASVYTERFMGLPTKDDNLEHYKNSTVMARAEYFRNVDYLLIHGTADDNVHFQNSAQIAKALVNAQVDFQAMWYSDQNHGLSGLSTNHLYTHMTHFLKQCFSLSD

SMILES	IC50 [1, 3] [nM]	IC50 [2, 4] [nM]	IC50 [1, 5] [nM]	IC50 [2, 6] [nM]
CCCCCC(=O)N[C@H]1CSSC[C@@H](C(=O)N[C@@H](CCCCNC(=O)CN2CCN(CC(=O)O)CCN(CC(=O)O)CCN(CC(=O)O)CC2)CC(=O)O)NC(=O)[C@H](Cc2ccccc2)NC(=O)[C@H](CCC(=O)O)NC(=O)[C@H]([C@@H](C)O)NC(=O)[C@@H]2CCCN2C(=O)[C@@H]2CCCN2C1=O [Compound 1012, Hex-[Cys-Pro-Pro-Thr-Glu-Phe-Cys]-Bhk(DOTA)-OH] (Hexanoyl-CPPTEFC[β3hK](DOTA)-OH; disulfide 1-7)	< 100	< 100	–	–
CCCCCC(=O)N[C@H]1CSSC[C@@H](C(=O)N[C@@H](CC(=O)O)C(=O)N[C@@H](CCCCNC(=O)CN2CCN(CC(=O)O)CCN(CC(=O)O)CCN(CC(=O)O)CC2)C(N)=O)NC(=O)[C@H](Cc2ccccc2)NC(=O)[C@H](CCC(=O)O)NC(=O)[C@H]([C@@H](C)O)NC(=O)[C@@H]2CCCN2C(=O)[C@@H]2CCCN2C1=O [Compound 1013, Hex-[Cys-Pro-Pro-Thr-Glu-Phe-Cys]-Asp-Lys(DOTA)-NH2] (Hexanoyl-CPPTEFCDK(DOTA)-NH2; disulfide 1-7)	< 100	< 100	–	–
CCCCNC(=O)N[C@H]1CSSC[C@@H](C(=O)N[C@@H](CCCCNC(=O)CN2CCN(CC(=O)O)CCN(CC(=O)O)CCN(CC(=O)O)CC2)CC(=O)O)NC(=O)[C@H](Cc2ccccc2)NC(=O)[C@H](CCC(=O)O)NC(=O)[C@H]([C@@H](C)O)NC(=O)[C@@H]2CCCN2C(=O)[C@@H]2CCCN2C1=O [Compound 1014, Buur-[Cys-Pro-Pro-Thr-Glu-Phe-Cys]-Bhk(DOTA)-OH] ({NHBu-CO}-CPPTEFC[β3hK](DOTA)-OH; disulfide 1-7)	< 100	< 100	–	–
CCCCCC(=O)N[C@H]1CSC2=C(SC[C@@H](C(=O)N[C@@H](CC(=O)O)C(N)=O)NC(=O)[C@H](Cc3ccccc3)NC(=O)[C@H](CCC(N)=O)NC(=O)[C@H]([C@@H](C)O)NC(=O)[C@@H]3CCCN3C(=O)[C@@H]3CCCN3C1=O)C(=O)NC2=O [Compound 2001, Hex-[Cys(mli)-Pro-Pro-Thr-Gln-Phe-Cys]-Asp-NH2] (HELM PEPTIDE1{[CCCCCC(=O)[*:2]].C.P.P.T.Q.F.C.D.[am]}|CHEM1{[O=C1NC(=O)C([*:2])=C1[*:1]]}$PEPTIDE1,CHEM1,2:R3-1:R1|PEPTIDE1,CHEM1,8:R3-1:R2$$$V2.0)	< 100	< 100	–	–
CCCC[C@H](NC(=O)CN1CCN(CC(=O)O)CCN(CC(=O)O)CCN(CC(=O)O)CC1)C(=O)N[C@H]1CSC2=C(SC[C@@H](C(=O)N[C@@H](CC(=O)O)C(N)=O)NC(=O)[C@H](Cc3ccccc3)CC(=O)[C@H](CCC(N)=O)NC(=O)[C@H]([C@@H](C)O)NC(=O)[C@@H]3CCCN3C(=O)[C@@H]3CCCN3C1=O)C(=O)NC2=O [Compound 2003, DOTA-Nle-[Cys(mli)-Pro-Pro-Thr-Gln-Phe-Cys]-Asp-NH2] ({DOTA}-[Nle]CPPT[X1]CD-NH2; linker 2-7 via Maleimide(3,4-diyl))	< 100	< 100	–	–
CCCC[C@H](NC(=O)COCCOCCNC(=O)CN1CCN(CC(=O)O)CCN(CC(=O)O)CCN(CC(=O)O)CC1)C(=O)N[C@H]1CSC2=C(SC[C@@H](C(=O)N[C@@H](CC(=O)O)C(N)=O)NC(=O)[C@H](Cc3ccccc3)CC(=O)[C@H](CCC(N)=O)NC(=O)[C@H]([C@@H](C)O)NC(=O)[C@@H]3CCCN3C(=O)[C@@H]3CCCN3C1=O)C(=O)NC2=O [Compound 2004, DOTA-O2Oc-Nle-[Cys(mli)-Pro-Pro-Thr-Gln-Phe-Cys]-Asp-NH2] ({DOTA-AEEA}-[Nle]CPPT[X1]CD-NH2; linker 2-7 via Maleimide(3,4-diyl))	< 100	< 100	< 100	< 100
CCCCCC(=O)N[C@H]1CSC2=C(SC[C@@H](C(=O)N[C@@H](CCCCNC(=O)CN3CCN(CC(=O)O)CCN(CC(=O)O)CCN(CC(=O)O)CC3)CC(=O)O)NC(=O)[C@H](Cc3ccccc3)NC(=O)[C@H](CCC(N)=O)NC(=O)[C@H]([C@@H](C)O)NC(=O)[C@@H]3CCCN3C(=O)[C@@H]3CCCN3C1=O)C(=O)NC2=O [Compound 2010, Hex-[Cys(mli)-Pro-Pro-Thr-Gln-Phe-Cys]-Bhk(DOTA)-OH]	< 100	< 100	–	–

Now from value to compound:

IC50 [1, 3] [nM]	IC50 [2, 4] [nM]	IC50 [1, 5] [nM]	IC50 [2, 6] [nM]	SMILES
< 100	< 100	–	–	CCCCCC(=O)N[C@H]1CSSC[C@@H](C(=O)N[C@@H](CC(=O)O)C(=O)N[C@@H](CCCCNC(=O)CN2CCN(CC(=O)O)CCN(CC(=O)O)CCN(CC(=O)O)CC2)C(N)=O)NC(=O)[C@H](Cc2ccccc2)NC(=O)[C@H](CCC(N)=O)NC(=O)[C@H]([C@@H](C)O)NC(=O)[C@@H]2CCCN2C(=O)[C@@H]2CCCN2C1=O [Compound 1016, Hex-[Cys-Pro-Pro-Thr-Gln-Phe-Cys]-Asp-Lys(DOTA)-NH2] (Hexanoyl-CPPTQFCDK(DOTA)-NH2; disulfide 1-7)
< 100	< 100	–	–	CCCC[C@H](NC(=O)CCC(=O)NCCCOCCOCCOCCCNC(=O)CC[C@H](C(=O)O)N1CCN(CC(=O)O)CCN(CC(=O)O)CC1)C(=O)N[C@H]1CSSC[C@@H](C(=O)NCCC(=O)O)NC(=O)[C@H](Cc2ccccc2)NC(=O)[C@H](CCC(N)=O)NC(=O)[C@H]([C@@H](C)O)NC(=O)[C@@H]2CCCN2C(=O)[C@@H]2CCCN2C1=O [Compound 1018, NODAGA-Ttds-Nle-[Cys-Pro-Pro-Thr-Gln-Phe-Cys]-Bal-OH]
< 100	< 100	–	–	CCCC[C@H](NC(=O)CCC(=O)NCCCOCCOCCOCCCNC(=O)C(CNCCN)CNCCN)C(=O)N[C@H]1CSSC[C@@H](C(=O)NCCC(=O)O)NC(=O)[C@H](Cc2ccccc2)NC(=O)[C@H](CCC(N)=O)NC(=O)[C@H]([C@@H](C)O)NC(=O)[C@@H]2CCCC2C(=O)[C@@H]2CCCN2C1=O (stereo partly drawn) [Compound 1019, N4Ac-Ttds-Nle-[Cys-Pro-Pro-Thr-Gln-Phe-Cys]-Bal-OH] ({X8-Suc}-[Nle]C[X9]TQFC[βAla]-OH; disulfide 2-7)
< 100	< 100	–	–	CCCCCC(=O)N[C@H]1CSSC[C@@H](C(=O)N[C@@H](CC(=O)O)C(=O)N[C@@H](CCCCNC(=O)CC[C@H](C(=O)O)N2CCN(CC(=O)O)CCN(CC(=O)O)CC2)C(N)=O)NC(=O)[C@H](Cc2ccccc2)NC(=O)[C@H](CCC(=O)O)NC(=O)[C@H]([C@@H](C)O)NC(=O)[C@@H]2CCCN2C(=O)[C@@H]2CCCN2C1=O [Compound 1020, Hex-[Cys-Pro-Pro-Thr-Glu-Phe-Cys]-Asp-Lys(NODAGA)-NH2] (Hexanoyl-CPPTEFCDK(X11)-NH2; disulfide 1-7)
< 100	< 100	–	–	CCCCCC(=O)N[C@H]1CSSC[C@@H](C(=O)N[C@@H](CC(=O)O)C(=O)N[C@@H](CCCCNC(=O)C(CNCCN)CNCCN)C(N)=O)NC(=O)[C@H](Cc2ccccc2)NC(=O)[C@H](CCC(=O)O)NC(=O)[C@H]([C@@H](C)O)NC(=O)[C@@H]2CCCN2C(=O)[C@@H]2CCCN2C1=O [Compound 1021, Hex-[Cys-Pro-Pro-Thr-Glu-Phe-Cys]-Asp-Lys(N4Ac)—NH2] (Hexanoyl-CPPTEFCDK(X3)-NH2; disulfide 1-7)
< 100	< 100	–	–	CCCCCC(=O)N[C@H]1CCSSCC[C@@H](C(=O)N[C@@H](CC(=O)O)C(N)=O)NC(=O)[C@H](Cc2ccccc2)NC(=O)[C@H](CCC(N)=O)NC(=O)[C@H]([C@@H](C)O)NC(=O)[C@@H]2CCCN2C(=O)[C@@H]2CCCN2C1=O [Compound 2002, Hex-[Hcy-Pro-Pro-Thr-Gln-Phe-Hcy]-Asp-NH2] (Hexanoyl-[hCys]PPTQF[hCys]D-NH2; disulfide 1-7)
< 100	< 100	< 100	< 100	CCCC[C@H](NC(=O)CCC(=O)NCCCOCCOCCOCCCNC(=O)CN1CCN(CC(=O)O)CCN(CC(=O)O)CCN(CC(=O)O)CC1)C(=O)N[C@H]1CSC2=C(SC[C@@H](C(=O)N[C@@H](CC(=O)O)C(N)=O)NC(=O)[C@H](Cc3ccccc3)CC(=O)[C@H](CCC(N)=O)NC(=O)[C@H]([C@@H](C)O)NC(=O)[C@@H]3CCCN3C(=O)[C@@H]3CCCN3C1=O)C(=O)NC2=O [Compound 2005, DOTA-Ttds-Nle-[Cys(mli)-Pro-Pro-Thr-Gln-Phe-Cys]-Asp-NH2]
< 100	< 100	–	–	CCCC[C@H](NC(=O)CCC(=O)NCCCOCCOCCOCCCNC(=O)CN1CCN(CC(=O)O)CCN(CC(=O)O)CCN(CC(=O)O)CC1)C(=O)N[C@H]1CSC2=C(SC[C@@H](C(=O)N[C@@H](CC(=O)O)C(=O)NCc3ccc(C(=O)N[C@@H](CCCNC(=N)N)C(N)=O)cc3)NC(=O)[C@H](Cc3ccccc3)CC(=O)[C@H](CCC(N)=O)NC(=O)[C@H]([C@@H](C)O)NC(=O)[C@@H]3CCCN3C(=O)[C@@H]3CCCN3C1=O)C(=O)NC2=O [Compound 2006, DOTA-Ttds-Nle-[Cys(mli)-Pro-Pro-Thr-Gln-Phe-Cys]-Asp-Pamb-Arg-NH2] ({X4-Suc}-[Nle]CPPT[X1]CD[4Amb]R-NH2; linker 2-7 via Maleimide(3,4-diyl))
< 100	< 100	–	–	CCCC[C@H](NC(=O)CCC(=O)NCCCOCCOCCOCCCNC(=O)CN1CCN(CC(=O)O)CCN(CC(=O)O)CCN(CC(=O)O)CC1)C(=O)N[C@H]1CSC2=C(SC[C@@H](C(=O)O)NC(=O)[C@H](Cc3ccccc3)CC(=O)[C@H](CCC(N)=O)NC(=O)[C@H]([C@@H](C)O)NC(=O)[C@@H]3CCCN3C(=O)[C@@H]3CCCN3C1=O)C(=O)NC2=O [Compound 2008, DOTA-Ttds-Nle-[Cys(mli)-Pro-Pro-Thr-Gln-Phe-Cys]-OH]
< 100	< 100	–	–	CCCC[C@H](NC(=O)CCC(=O)NCCCOCCOCCOCCCNC(=O)CN1CCN(CC(=O)O)CCN(CC(=O)O)CCN(CC(=O)O)CC1)C(=O)N[C@H]1CSC2=C(SC[C@@H](C(=O)NCCC(=O)O)NC(=O)[C@H](Cc3ccccc3)CC(=O)[C@H](CCC(N)=O)NC(=O)[C@H]([C@@H](C)O)NC(=O)[C@@H]3CCCN3C(=O)[C@@H]3CCCN3C1=O)C(=O)NC2=O [Compound 2009, DOTA-Ttds-Nle-[Cys(mli)-Pro-Pro-Thr-Gln-Phe-Cys]-Bal-OH]
